In paper PMC4700268 (Frontiers in Pharmacology, 2016):
Where two headings read alike, the source gives them in different places.

Columns and labels:
[1] = ref Matthews, 2006, Yan et al.; cited from earlier work
[2] = molecular target: T1, hCNT3 (Homo sapiens, UniProt Q9HAS3); test: [3H]ETV uptake in hCNT3 transfected cells; conditions: 5 min, 37°C
T1 sequence (Q9HAS3 1-691): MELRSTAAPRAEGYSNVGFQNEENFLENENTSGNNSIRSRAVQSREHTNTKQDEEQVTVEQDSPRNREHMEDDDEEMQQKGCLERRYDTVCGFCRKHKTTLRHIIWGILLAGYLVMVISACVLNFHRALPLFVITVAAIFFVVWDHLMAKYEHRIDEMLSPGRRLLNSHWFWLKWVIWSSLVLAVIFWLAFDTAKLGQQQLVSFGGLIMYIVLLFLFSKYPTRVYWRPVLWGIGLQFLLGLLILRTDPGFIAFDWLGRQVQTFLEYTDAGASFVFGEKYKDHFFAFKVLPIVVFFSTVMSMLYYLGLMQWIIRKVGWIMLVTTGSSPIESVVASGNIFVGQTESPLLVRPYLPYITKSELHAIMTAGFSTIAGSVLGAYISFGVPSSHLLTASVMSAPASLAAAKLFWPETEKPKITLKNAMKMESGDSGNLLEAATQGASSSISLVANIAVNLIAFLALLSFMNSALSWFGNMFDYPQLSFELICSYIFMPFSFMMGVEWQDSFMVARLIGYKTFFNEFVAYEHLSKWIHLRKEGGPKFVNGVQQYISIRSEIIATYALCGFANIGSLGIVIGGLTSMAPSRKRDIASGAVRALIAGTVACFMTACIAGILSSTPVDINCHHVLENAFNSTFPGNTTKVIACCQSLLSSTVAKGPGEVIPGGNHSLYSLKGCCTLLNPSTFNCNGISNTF

[3] = molecular target: T2, hOAT1 (Homo sapiens, UniProt Q4U2R8); test: [3H]ETV uptake in hOAT1 transfected cells; type: in vitro ADME; set-up: host or cells: HeLa cells, transient transfection; conditions: 5 min, 37°C
T2 sequence (Q4U2R8 1-563): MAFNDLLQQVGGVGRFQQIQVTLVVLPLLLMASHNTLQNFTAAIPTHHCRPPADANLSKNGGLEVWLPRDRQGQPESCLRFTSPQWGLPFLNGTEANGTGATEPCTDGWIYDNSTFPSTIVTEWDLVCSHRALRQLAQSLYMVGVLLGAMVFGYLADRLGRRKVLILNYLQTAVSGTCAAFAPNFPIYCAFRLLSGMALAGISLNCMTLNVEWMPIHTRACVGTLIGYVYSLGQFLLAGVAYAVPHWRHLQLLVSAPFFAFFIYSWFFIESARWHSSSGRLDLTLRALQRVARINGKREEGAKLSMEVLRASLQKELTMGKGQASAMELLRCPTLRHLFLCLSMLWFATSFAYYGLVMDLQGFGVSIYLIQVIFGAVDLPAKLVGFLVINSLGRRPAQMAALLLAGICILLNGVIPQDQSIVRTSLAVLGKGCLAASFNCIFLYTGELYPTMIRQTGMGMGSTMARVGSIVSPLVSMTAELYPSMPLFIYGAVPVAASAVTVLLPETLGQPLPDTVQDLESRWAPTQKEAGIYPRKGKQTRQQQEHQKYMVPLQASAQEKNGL

[4] = molecular target: T2, hOAT1; test: Inhibition by ETV of [3H]adefovir, [3H]tenofovir, [3H]cidofovir accumulation in hOAT1 transfected HeLa cells; type: in vitro ADME; set-up: host or cells: HeLa cells, transient transfection; conditions: 2 min
Experimental: Inhibitory transport assays were carried out in 24-well plates as described previously ([Mandikova et al., 2013]). Transport assays in HeLa cells transiently transfected with the hOAT1 expression construct were performed 48 h after transfection. Transport assays in MDCK II cells transiently transfected with hOCT2, hCNT2 or hCNT3 were performed 24 h after transfection. The cultivation medium was removed and the cells were washed with transport solution and preincubated for 10 min at 37°C. The standard radiolabeled substrate or tested radioactive antiviral substance dissolved in transport solution was added to the cells and incubated for 2 min. […] After the designated time period, the incubation was stopped by washing the cells twice with ice-cold solution containing 137 mM NaCl and 10 mM HEPES, pH 7.4. The cells were disintegrated with 0.1 mL of Triton X 0.5% in 100 mM NaOH for 1 h. […] IC50 values were calculated using non-linear regression analysis using GraphPad Prism software (version 6).

[5] = molecular target: T1, hCNT3; test: Inhibition of [3H]uridine uptake in hCNT3 transfected MDCK II cells; type: in vitro ADME; set-up: host or cells: MDCK II cells, transient transfection; conditions: 1 μM [3H]uridine, MDCK II cells transiently transfected with hCNT3, 2 min, 37°C; read-out: IC50, inhibition of hCNT3 mediated transport
Experimental: Inhibitory transport assays were carried out in 24-well plates as described previously ([Mandikova et al., 2013]). Transport assays in HeLa cells transiently transfected with the hOAT1 expression construct were performed 48 h after transfection. Transport assays in MDCK II cells transiently transfected with hOCT2, hCNT2 or hCNT3 were performed 24 h after transfection. The cultivation medium was removed and the cells were washed with transport solution and preincubated for 10 min at 37°C. The standard radiolabeled substrate or tested radioactive antiviral substance dissolved in transport solution was added to the cells and incubated for 2 min. [^3H]PAH (1 μM) was used as a prototypical substrate for OATs, [^3H]MPP^+ (1 μM) for OCTs and [^3H]uridine (1 μM) for CNTs. […] After the designated time period, the incubation was stopped by washing the cells twice with ice-cold solution containing 137 mM NaCl and 10 mM HEPES, pH 7.4. The cells were disintegrated with 0.1 mL of Triton X 0.5% in 100 mM NaOH for 1 h.
IC50 values were calculated using non-linear regression analysis using GraphPad Prism software (version 6).

Vmax of [3H]ETV uptake by hCNT3 [2]: 45.84 nmol/mg protein/5 min
Vmax of [3H]ETV uptake by hOAT1 [3]: 0.91 nmol/mg protein/5 min
IC50 ([4]; IC50, inhibition of [3H]cidofovir accumulation by hOAT1, [3H]cidofovir 70 μM): 695 µM
IC50 ([4]; [3H]adefovir 0.1 μM, read-out: IC50, inhibition of [3H]adefovir accumulation by hOAT1): 432 µM
IC50 ([4]; [3H]tenofovir 0.5 μM, read-out: IC50, inhibition of [3H]tenofovir accumulation by hOAT1): 704 µM
IC50 [5]: 278 µM
SMILES: C=C1[C@H](CO)[C@@H](O)C[C@@H]1n1cnc2c(=O)[nH]c(N)nc21 [ETV, Entecavir]
Therapeutic concentrations in plasma following regular doses [1]: below 50 nM
